As a reminder, the IC50 is the point on the concentration scale where inhibition reaches its midpoint. A lower IC50 goes with greater potency. The term EC50 denotes the concentration that produces a half-maximal response.

This passage reports IC50 and EC50 results from patent US10246456B2, “IRAK4 inhibiting agents” (BIOGEN MA INC., priority 2014, dated 2019).

The target of one assay is IRAK4 (Homo sapiens (Human), UniProt Q9NWZ3). In words: IRAK-4 AlphaScreen biochemical kinase assay. Particulars: 1 nM IRAK4, 1 mM ATP, 3.5 h at RT. An outline of the steps: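 AlphaScreen read-out: streptavidin beads bind the biotinylated peptide and protein A beads bind the anti-phosphothreonine antibody, so energy transfer reports phosphorylation of the peptide. The kinase is human IRAK-4.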

A further assay relates to IL-6 in A549 cells. Description: Cell-based IL-6 ELISA assay in IL-1beta stimulated A549 cells. Conditions: 2 ng/ml human IL-1beta overnight. As to the method:
The cell-based assays is based on IL-6 ELISA quantification. Briefly, A549 cells are cultured in DMEM with 10% FBS medium. When cells reach 80% confluence they are trypsin treated and seeded 180 ul/well in 96-well plate at 2.5×10^4 cells/well. Then, 20 ul of compound serial dilutions (starting at 10 uM, 10 points) are added to the cell plate; incubate for 30 min at 37 C and stimulated with 2 ng/ml human IL-1beta 37 C, 5% CO2 overnight. The next day 100 ul of cell supernatant per well are analyzed on a Human IL-6 Quantikine ELISA kit from R&D Systems.
On the technique in general: In an ELISA, binding on a coated surface is turned into a signal by an enzyme label.

Chain of IRAK4 (Q9NWZ3 whole entry, species assumed): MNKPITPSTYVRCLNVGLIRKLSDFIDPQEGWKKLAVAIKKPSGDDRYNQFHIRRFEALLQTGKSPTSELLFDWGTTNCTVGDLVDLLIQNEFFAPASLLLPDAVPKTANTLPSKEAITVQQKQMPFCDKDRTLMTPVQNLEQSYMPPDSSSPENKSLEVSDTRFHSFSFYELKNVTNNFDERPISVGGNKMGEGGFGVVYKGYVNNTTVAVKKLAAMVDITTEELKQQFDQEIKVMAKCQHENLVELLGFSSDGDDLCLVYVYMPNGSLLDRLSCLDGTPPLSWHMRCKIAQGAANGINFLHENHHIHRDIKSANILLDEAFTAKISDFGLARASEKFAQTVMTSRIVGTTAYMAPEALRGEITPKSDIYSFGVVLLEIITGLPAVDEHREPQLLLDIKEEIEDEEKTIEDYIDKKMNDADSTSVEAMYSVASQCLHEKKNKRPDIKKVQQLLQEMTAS

With `CCC[C@H](N)c1cccc(-c2cc(NC)c3cnn(-c4cccc(CO)n4)c3c2)n1` [Example 327, (S)-(6-(6-(6-(1-aminobutyl)pyridin-2-yl)-4-(methylamino)-1H-indazol-1-yl)pyridin-2-yl)methanol], the half-maximal inhibitory concentration (IC50) on IRAK4 was below 100 nM. The EC50 in the assay on IL-6 in A549 cells was at most 1000 nM.
Turning to `CCC[C@H](N)c1cccc(-c2cc(NCC)c3cnn(-c4cccc(CO)n4)c3c2)n1` [Example 328, (S)-(6-(6-(6-(1-aminobutyl)pyridin-2-yl)-4-(ethylamino)-1H-indazol-1-yl)pyridin-2-yl)methanol], the IC50 against IRAK4 is below 100 nM. In the assay on IL-6 in A549 cells, this molecule showed an EC50 of at most 1000 nM.
In the same order, the values of `CCC[C@H](N)c1cccc(-c2cc(N3CCC(O)CC3)c3cnn(-c4cccc(CO)n4)c3c2)n1` [Example 329, (S)-1-(6-(6-(1-aminobutyl)pyridin-2-yl)-1-(6-(hydroxymethyl)pyridin-2-yl)-1H-indazol-4-yl)piperidin-4-ol] are below 100 nM and at most 1000 nM.
In the same order, the values of `CCC[C@H](N)c1cccc(-c2cc(N3CCCC(O)C3)c3cnn(-c4cccc(CO)n4)c3c2)n1` (stereo partly drawn) [Example 330, 1-(6-(6-((S)-1-aminobutyl)pyridin-2-yl)-1-(6-(hydroxymethyl)pyridin-2-yl)-1H-indazol-4-yl)piperidin-3-ol] are below 100 nM and at most 1000 nM.
In the case of `CCC[C@H](N)c1cccc(-c2cc(N3CC(F)(F)C3)c3cnn(-c4cccc(CO)n4)c3c2)n1` [Example 331, (S)-(6-(6-(6-(1-aminobutyl)pyridin-2-yl)-4-(3,3-difluoroazetidin-1-yl)-1H-indazol-1-yl)pyridin-2-yl)methanol], the IC50 against IRAK4 is below 100 nM. The molecule further had an EC50 in the assay on IL-6 in A549 cells of at most 1000 nM.
In the same order, the values of `CCC[C@H](N)c1cccc(-c2cc(N3CC(CO)(CCl)C3)c3cnn(-c4cccc(CO)n4)c3c2)n1` [Example 332, (S)-(1-(6-(6-(1-aminobutyl)pyridin-2-yl)-1-(6-(hydroxymethyl)pyridin-2-yl)-1H-indazol-4-yl)-3-(chloromethyl)azetidin-3-yl)methanol] are below 100 nM and at most 1000 nM.
In the same order, the values of `CCC[C@H](N)c1cccc(-c2cc(N3CCC(F)(F)C3)c3cnn(-c4cccc(CO)n4)c3c2)n1` [Example 333, (S)-(6-(6-(6-(1-aminobutyl)pyridin-2-yl)-4-(3,3-difluoropyrrolidin-1-yl)-1H-indazol-1-yl)pyridin-2-yl)methanol] are below 100 nM and at most 1000 nM.
In the same order, the values of `CCC[C@H](N)c1cccc(-c2cc(N3CCOC(C)C3)c3cnn(-c4cccc(CO)n4)c3c2)n1` (stereo partly drawn) [Example 334, (6-(6-(6-((S)-1-aminobutyl)pyridin-2-yl)-4-(2-methylmorpholino)-1H-indazol-1-yl)pyridin-2-yl)methanol] are below 100 nM and at most 1000 nM.
The molecule `CCC[C@H](N)c1cccc(-c2cc(N3CC(C)OC(C)C3)c3cnn(-c4cccc(CO)n4)c3c2)n1` (stereo partly drawn) [Example 335, (6-(6-(6-((S)-1-aminobutyl)pyridin-2-yl)-4-(2,6-dimethylmorpholino)-1H-indazol-1-yl)pyridin-2-yl)methanol] had an IC50 against IRAK4 below 100 nM. In the assay with IL-6 in A549 cells, this molecule registered an EC50 of at most 1000 nM.
Regarding `CCC[C@H](N)c1cccc(-c2cc(NCC(CCl)C(=O)O)c3cnn(-c4cccc(CO)n4)c3c2)n1` (stereo partly drawn) [Example 336, 3-((6-(6-((S)-1-aminobutyl)pyridin-2-yl)-1-(6-(hydroxymethyl)pyridin-2-yl)-1H-indazol-4-yl)amino)-2-(chloromethyl)propanoic acid], the IC50 at IRAK4 is below 100 nM. The EC50 in the assay with IL-6 in A549 cells is at most 1000 nM.
Taken in the same sequence, the figures for `CCC[C@H](N)c1cccc(-c2cc(N3CCS(=O)(=O)CC3)c3cnn(-c4cccc(CO)n4)c3c2)n1` [Example 337, (S)-4-(6-(6-(1-aminobutyl)pyridin-2-yl)-1-(6-(hydroxymethyl)pyridin-2-yl)-1H-indazol-4-yl)thiomorpholine 1,1-dioxide] were below 100 nM and at most 1000 nM.
Taken in the same sequence, the figures for `CCC[C@H](N)c1cccc(-c2cc(N3CCSCC3)c3cnn(-c4cccc(CO)n4)c3c2)n1` [Example 338, (S)-(6-(6-(6-(1-aminobutyl)pyridin-2-yl)-4-thiomorpholino-1H-indazol-1-yl)pyridin-2-yl)methanol] were below 100 nM and at most 1000 nM.
Taken in the same sequence, the figures for `CCC[C@H](N)c1cccc(-c2cc(N3CC(C)(C)C3)c3cnn(-c4cccc(CO)n4)c3c2)n1` [Example 340, (S)-(6-(6-(6-(1-aminobutyl)pyridin-2-yl)-4-(3,3-dimethylazetidin-1-yl)-1H-indazol-1-yl)pyridin-2-yl)methanol] were below 100 nM and at most 1000 nM.
`CCC[C@H](N)c1cccc(-c2cc(N3CCC(C(=O)O)C3)c3cnn(-c4cccc(CO)n4)c3c2)n1` (stereo partly drawn) [Example 341, 1-(6-(6-((S)-1-aminobutyl)pyridin-2-yl)-1-(6-(hydroxymethyl)pyridin-2-yl)-1H-indazol-4-yl)pyrrolidine-3-carboxylic acid]: at IRAK4, the IC50 was below 100 nM. Also, in the assay with IL-6 in A549 cells, the EC50 is at most 1000 nM.
Taken in the same sequence, the figures for `CCC[C@H](N)c1cccc(-c2cc(N3CCCC3)c3cnn(-c4cccc(CO)n4)c3c2)n1` [Example 342, (S)-(6-(6-(6-(1-aminobutyl)pyridin-2-yl)-4-(pyrrolidin-1-yl)-1H-indazol-1-yl)pyridin-2-yl)methanol] were below 100 nM and at most 1000 nM.
As to `CCC[C@H](N)c1cccc(-c2cc(N3CCN(C)CC3)c3cnn(-c4cccc(CO)n4)c3c2)n1` [Example 343, (S)-(6-(6-(6-(1-aminobutyl)pyridin-2-yl)-4-(4-methylpiperazin-1-yl)-1H-indazol-1-yl)pyridin-2-yl)methanol], the IC50 on IRAK4 was below 100 nM. The EC50 in the assay on IL-6 in A549 cells was at most 1000 nM.
In the same order, the values of `CCC[C@H](N)c1cccc(-c2cc(NCC(C)(C)CCl)c3cnn(-c4cccc(CO)n4)c3c2)n1` [Example 344, (S)-(6-(6-(6-(1-aminobutyl)pyridin-2-yl)-4-((3-chloro-2,2-dimethylpropyl)amino)-1H-indazol-1-yl)pyridin-2-yl)methanol] are below 100 nM and at most 1000 nM.
In the same order, the values of `CCC[C@H](N)c1cccc(-c2cc(N3CCC(F)(F)CC3)c3cnn(-c4cccc(CO)n4)c3c2)n1` [Example 346, (S)-(6-(6-(6-(1-aminobutyl)pyridin-2-yl)-4-(4,4-difluoropiperidin-1-yl)-1H-indazol-1-yl)pyridin-2-yl)methanol] are below 100 nM and at most 1000 nM.
With `CCC[C@H](N)c1cccc(-c2cc(N3CCCC(F)(F)C3)c3cnn(-c4cccc(CO)n4)c3c2)n1` [Example 347, (S)-(6-(6-(6-(1-aminobutyl)pyridin-2-yl)-4-(3,3-difluoropiperidin-1-yl)-1H-indazol-1-yl)pyridin-2-yl)methanol], on IRAK4, the IC50 was below 100 nM. In the assay on IL-6 in A549 cells, the EC50 was at most 1000 nM.
In the same order, the values of `CCC[C@H](N)c1cccc(-c2cc(N3CC(C(=O)O)C3)c3cnn(-c4cccc(CO)n4)c3c2)n1` [Example 348, (S)-1-(6-(6-(1-aminobutyl)pyridin-2-yl)-1-(6-(hydroxymethyl)pyridin-2-yl)-1H-indazol-4-yl)azetidine-3-carboxylic acid] are below 100 nM and at most 1000 nM.
On IRAK4, `CCC[C@H](N)c1cccc(-c2cc(N3CCCC(C(=O)O)C3)c3cnn(-c4cccc(CO)n4)c3c2)n1` (stereo partly drawn) [Example 349, 1-(6-(6-((S)-1-aminobutyl)pyridin-2-yl)-1-(6-(hydroxymethyl)pyridin-2-yl)-1H-indazol-4-yl)piperidine-3-carboxylic acid] registered an IC50 below 100 nM. The same molecule displayed an EC50 with IL-6 in A549 cells of at most 1000 nM.
Take `CCC[C@H](N)c1cccc(-c2cc(N3CCC(C(=O)O)CC3)c3cnn(-c4cccc(CO)n4)c3c2)n1` [Example 350, (S)-1-(6-(6-(1-aminobutyl)pyridin-2-yl)-1-(6-(hydroxymethyl)pyridin-2-yl)-1H-indazol-4-yl)piperidine-4-carboxylic acid]: the IC50 on IRAK4 was below 100 nM. In the assay on IL-6 in A549 cells, this molecule came in with an EC50 of 1000 to 10000 nM.
The molecule `C[C@H](N)c1cccc(-c2cc(-n3ccnc3)c3cnn(-c4cccc(CO)n4)c3c2)n1` [Example 354, (S)-(6-(6-(6-(1-aminoethyl)pyridin-2-yl)-4-(1H-imidazol-1-yl)-1H-indazol-1-yl)pyridin-2-yl)methanol] returned an IC50 against IRAK4 below 100 nM. The EC50 in the assay on IL-6 in A549 cells was at most 1000 nM.
On IRAK4, `C[C@H](N)c1cccc(-c2cc(-n3cncn3)c3cnn(-c4cccc(CO)n4)c3c2)n1` [Example 355, (S)-(6-(6-(6-(1-aminoethyl)pyridin-2-yl)-4-(1H-1,2,4-triazol-1-yl)-1H-indazol-1-yl)pyridin-2-yl)methanol] yielded an IC50 below 100 nM. The molecule further had an EC50 with IL-6 in A549 cells of at most 1000 nM.
Turning to `C[C@H](N)c1cccc(-c2cc(-n3ccc(C(F)(F)F)n3)c3cnn(-c4cccc(CO)n4)c3c2)n1` [Example 356, (S)-(6-(6-(6-(1-aminoethyl)pyridin-2-yl)-4-(3-(trifluoromethyl)-1H-pyrazol-1-yl)-1H-indazol-1-yl)pyridin-2-yl)methanol], the IC50 against IRAK4 was below 100 nM. The EC50 in the assay with IL-6 in A549 cells lay within 1000 to 10000 nM.
In the same order, the values of `C[C@H](N)c1cccc(-c2cc(-c3ccn(C)n3)c3cnn(-c4cccc(CO)n4)c3c2)n1` [Example 357, (S)-(6-(6-(6-(1-aminoethyl)pyridin-2-yl)-4-(1-methyl-1H-pyrazol-3-yl)-1H-indazol-1-yl)pyridin-2-yl)methanol] are below 100 nM and at most 1000 nM.
